Experimental data published in ChEMBL document CHEMBL2440076, “New triarylpyrazoles as broad-spectrum anticancer agents: design, synthesis, and biological evaluation” (Eur J Med Chem, 2013).

What was measured:
Type in all cases: functional
SK-MEL-28 = test: Growth inhibition of human SK-MEL-28 cells assessed as cell growth at 10^-4 M after 48 hrs by sulforhodamine B assay; settings: SK-MEL-28, 48 h, read-out: Activity
786-0 = test: Growth inhibition of human 786-0 cells assessed as cell growth at 10^-6 M after 48 hrs by sulforhodamine B assay; settings: 786-0, 48 h, read-out: Activity
NCI-H460 [1] = test: Growth inhibition of human NCI-H460 cells assessed as cell growth at 10^-4 M after 48 hrs by sulforhodamine B assay; settings: NCI-H460, 48 h, read-out: Activity
CAKI-1 = test: Growth inhibition of human CAKI-1 cells assessed as cell growth at 10^-4 M after 48 hrs by sulforhodamine B assay; settings: CAKI-1, 48 h, read-out: Activity
NCI-H522 [2] = test: Growth inhibition of human NCI-H522 cells assessed as cell growth at 10^-7 M after 48 hrs by sulforhodamine B assay; settings: NCI-H522, 48 h, read-out: Activity
MDA-MB-435 = test: Growth inhibition of human MDA-MB-435 cells assessed as cell growth at 10^-4 M after 48 hrs by sulforhodamine B assay; settings: MDA-MB-435, 48 h, read-out: Activity
UO-31 = test: Growth inhibition of human UO31 cells assessed as cell growth at 10^-7 M after 48 hrs by sulforhodamine B assay; settings: UO-31, 48 h, read-out: Activity
A549 = test: Growth inhibition of human A549/ATCC cells assessed as cell growth at 10^-5 M after 48 hrs by sulforhodamine B assay; settings: A549, 48 h, read-out: Activity
HCT-116 = test: Growth inhibition of human HCT116 cells assessed as cell growth at 10^-5 M after 48 hrs by sulforhodamine B assay; settings: HCT-116, 48 h, read-out: Activity
[3] = Growth inhibition of human HCC2998 cells assessed as cell growth at 10^-8 M after 48 hrs by sulforhodamine B assay; settings: HCC 2998, 48 h, read-out: Activity
M14 = test: Growth inhibition of human M14 cells assessed as cell growth at 10^-5 M after 48 hrs by sulforhodamine B assay; settings: M14, 48 h, read-out: Activity
IGROV-1 = test: Growth inhibition of human IGROV1 cells assessed as cell growth at 10^-4 M after 48 hrs by sulforhodamine B assay; settings: IGROV-1, 48 h, read-out: Activity
HT-29 = test: Growth inhibition of human HT-29 cells assessed as cell growth at 10^-4 M after 48 hrs by sulforhodamine B assay; settings: HT-29, 48 h, read-out: Activity
MDA-MB-468 = test: Growth inhibition of human MDA-MB-468 cells assessed as cell growth at 10^-4 M after 48 hrs by sulforhodamine B assay; settings: MDA-MB-468, 48 h, read-out: Activity
HOP-62 = test: Growth inhibition of human HOP62 cells assessed as cell growth at 10^-6 M after 48 hrs by sulforhodamine B assay; settings: HOP-62, 48 h, read-out: Activity
HCT-15 = test: Growth inhibition of human HCT15 cells assessed as cell growth at 10^-6 M after 48 hrs by sulforhodamine B assay; settings: HCT-15, 48 h, read-out: Activity
U-251 = test: Growth inhibition of human U251 cells assessed as cell growth at 10^-4 M after 48 hrs by sulforhodamine B assay; settings: U-251, 48 h, read-out: Activity
MCF7 [4] = test: Growth inhibition of human MCF7 cells assessed as cell growth at 10^-7 M after 48 hrs by sulforhodamine B assay; settings: MCF7, 48 h, read-out: Activity
SNB-75 [5] = test: Growth inhibition of human SNB75 cells assessed as cell growth at 10^-5 M after 48 hrs by sulforhodamine B assay; settings: SNB-75, 48 h, read-out: Activity
UACC-62 = test: Growth inhibition of human UACC62 cells assessed as cell growth at 10^-5 M after 48 hrs by sulforhodamine B assay; settings: UACC-62, 48 h, read-out: Activity
NCI-H522 [6] = test: Growth inhibition of human NCI-H522 cells assessed as cell growth at 10^-4 M after 48 hrs by sulforhodamine B assay; settings: NCI-H522, 48 h, read-out: Activity
OVCAR-8 = test: Growth inhibition of human OVCAR8 cells assessed as cell growth at 10^-5 M after 48 hrs by sulforhodamine B assay; settings: OVCAR-8, 48 h, read-out: Activity
OVCAR-4 = test: Growth inhibition of human OVCAR4 cells assessed as cell growth at 10^-6 M after 48 hrs by sulforhodamine B assay; settings: OVCAR-4, 48 h, read-out: Activity
RXF 393 = test: Growth inhibition of human RXF393 cells assessed as cell growth at 10^-5 M after 48 hrs by sulforhodamine B assay; settings: RXF 393, 48 h, read-out: Activity
[7] = Growth inhibition of human Hs 578T cells assessed as cell growth at 10^-8 M after 48 hrs by sulforhodamine B assay; settings: read-out: Activity
NCI-H460 [8] = test: Growth inhibition of human NCI-H460 cells assessed as cell growth at 10^-8 M after 48 hrs by sulforhodamine B assay; settings: NCI-H460, 48 h, read-out: Activity
SR = test: Growth inhibition of human SR cells assessed as cell growth at 10^-7 M after 48 hrs by sulforhodamine B assay; settings: read-out: Activity
UACC-257 [9] = test: Growth inhibition of human UACC257 cells assessed as cell growth at 10^-7 M after 48 hrs by sulforhodamine B assay; settings: UACC-257, 48 h, read-out: Activity
SW-620 = test: Growth inhibition of human SW620 cells assessed as cell growth at 10^-6 M after 48 hrs by sulforhodamine B assay; settings: SW-620, 48 h, read-out: Activity
UACC-257 [10] = test: Growth inhibition of human UACC257 cells assessed as cell growth at 10^-5 M after 48 hrs by sulforhodamine B assay; settings: UACC-257, 48 h, read-out: Activity
COLO 205 = test: Growth inhibition of human COLO205 cells assessed as cell growth at 10^-7 M after 48 hrs by sulforhodamine B assay; settings: COLO 205, 48 h, read-out: Activity
KM12 = test: Growth inhibition of human KM12 cells assessed as cell growth at 10^-4 M after 48 hrs by sulforhodamine B assay; settings: KM12, 48 h, read-out: Activity
MCF7 [11] = test: Growth inhibition of human MCF7 cells assessed as cell growth at 10^-6 M after 48 hrs by sulforhodamine B assay; settings: MCF7, 48 h, read-out: Activity
PC-3 = test: Growth inhibition of human PC3 cells assessed as cell growth at 10^-6 M after 48 hrs by sulforhodamine B assay; settings: PC-3, 48 h, read-out: Activity
OVCAR-5 = test: Growth inhibition of human OVCAR5 cells assessed as cell growth at 10^-6 M after 48 hrs by sulforhodamine B assay; settings: OVCAR-5, 48 h, read-out: Activity
SNB-75 [12] = test: Growth inhibition of human SNB75 cells assessed as cell growth at 10^-8 M after 48 hrs by sulforhodamine B assay; settings: SNB-75, 48 h, read-out: Activity

Compound `COc1cc(-c2nn(-c3cccc(NC(=O)c4ccccc4)c3)cc2-c2ccncc2)ccc1Cl` has a growth at 100 µM (SK-MEL-28) of 26%, a growth at 1 µM (786-0) of 56% and a growth at 100 µM (NCI-H460 [1]) of 5%. It also gave a growth at 100 µM (CAKI-1) of 7%, a growth at 0.1 µM (NCI-H522 [2]) of 85% and a growth at 100 µM (MDA-MB-435) of -67%. For the same compound, the growth at 0.1 µM (UO-31) was 81%, the growth at 10 µM (A549) was 17% and the growth at 10 µM (HCT-116) was 17%. The growth at 0.01 µM [3] was 97%, the growth at 10 µM (M14) was 5% and the growth at 100 µM (IGROV-1) was 17%. For the same compound, the growth at 100 µM (HT-29) was 4%, the growth at 100 µM (MDA-MB-468) was -27% and the growth at 1 µM (HOP-62) was 72%. It also gave a growth at 1 µM (HCT-15) of 40%, a growth at 100 µM (U-251) of -18% and a growth at 0.1 µM (MCF7 [4]) of 87%. The growth at 10 µM (SNB-75 [5]) was 1%, the growth at 10 µM (UACC-62) was 25% and the growth at 100 µM (NCI-H522 [6]) was 6%. For the same compound, the growth at 10 µM (OVCAR-8) was 58%, the growth at 1 µM (OVCAR-4) was 51% and the growth at 10 µM (RXF 393) was -9%. The growth at 0.01 µM [7] was 103%, the growth at 0.01 µM (NCI-H460 [8]) was 102% and the growth at 0.1 µM (SR) was 79%. For the same compound, the growth at 0.1 µM (UACC-257 [9]) was 99%, the growth at 1 µM (SW-620) was 35% and the growth at 10 µM (UACC-257 [10]) was 29%. The growth at 0.1 µM (COLO 205) was 95%, the growth at 100 µM (KM12) was 6% and the growth at 1 µM (MCF7 [11]) was 17%. It also gave a growth at 1 µM (PC-3) of 29%, a growth at 1 µM (OVCAR-5) of 87% and a growth at 0.01 µM (SNB-75 [12]) of 89%.
`COc1cc(-c2nn(-c3cccc(NC(=O)c4ccc(N5CCOCC5)c(C(F)(F)F)c4)c3)cc2-c2ccncc2)ccc1Cl` gave a growth at 100 µM (SK-MEL-28) of 13%, a growth at 1 µM (786-0) of 45% and a growth at 100 µM (NCI-H460 [1]) of 1%. For the same compound, the growth at 100 µM (CAKI-1) was -4%, the growth at 0.1 µM (NCI-H522 [2]) was 51% and the growth at 100 µM (MDA-MB-435) was -34%. The growth at 0.1 µM (UO-31) was 64%, the growth at 10 µM (A549) was 7% and the growth at 10 µM (HCT-116) was 8%. It also gave a growth at 0.01 µM [3] of 101%, a growth at 10 µM (M14) of 8% and a growth at 100 µM (IGROV-1) of -15%. For the same compound, the growth at 100 µM (HT-29) was -43%, the growth at 100 µM (MDA-MB-468) was -53% and the growth at 1 µM (HOP-62) was 38%. It also gave a growth at 1 µM (HCT-15) of 27%, a growth at 100 µM (U-251) of -59% and a growth at 0.1 µM (MCF7 [4]) of 76%. For the same compound, the growth at 10 µM (SNB-75 [5]) was -13%, the growth at 10 µM (UACC-62) was -4% and the growth at 100 µM (NCI-H522 [6]) was -23%. For the same compound, the growth at 10 µM (OVCAR-8) was 3%, the growth at 1 µM (OVCAR-4) was 49% and the growth at 10 µM (RXF 393) was -41%. The growth at 0.01 µM [7] was 96%, the growth at 0.01 µM (NCI-H460 [8]) was 100% and the growth at 0.1 µM (SR) was 19%. For the same compound, the growth at 0.1 µM (UACC-257 [9]) was 74%, the growth at 1 µM (SW-620) was 36% and the growth at 10 µM (UACC-257 [10]) was -5%. The growth at 0.1 µM (COLO 205) was 101%, the growth at 100 µM (KM12) was -12% and the growth at 1 µM (MCF7 [11]) was 18%. The growth at 1 µM (PC-3) was 15%, the growth at 1 µM (OVCAR-5) was 57% and the growth at 0.01 µM (SNB-75 [12]) was 89%.
